Reference: patent EP4360643A1, “SOCS1 DERIVED PEPTIDES FOR USE IN THE TREATMENT OF LIVER DISEASES” (Fundacion Instituto De Investigacion Sanitaria Fundacion …, priority 2022, dated 2024)
Bridges are numbered along the chain shown (N, C = ends). Where no end group is shown, it is not given here. [ ]: non-standard residue; d: D form. The star is where a group is joined. 1Nal = N[C@@H](Cc1cccc2ccccc12)C(=O)O; Acm = CC(=O)NC*

How the values were obtained:
[1] = system: ApoE-/- mice fed with HFD; experiment: NAFLD induced by high-fat diet (HFD) in ApoE-/- mice; type: in vivo; settings: 8 weeks of treatment
Procedure: In the second model, apolipoprotein E deficient mice (ApoE-/-, males, 10-12 weeks old) were administered high-fat diet (HFD, TD.88137, Envigo) for 8 weeks and treated with vehicle (n=8) or SOCS1-derived peptides (S1, n=6; liPS5, n=6; cPS5, n=6; cPS5Nal, n=6) at the dose of 4µg/g (in 200 µL) via intraperitoneal injection 3 days per week. A group of ApoE-/- mice under standard diet (Chow, n=6) was included as control.
(§1) Mice were housed in ventilated cages (2-4 mice per cage) with usual bedding material and environmental enrichment in a conventional temperature-controlled room (20-22°C) with 12 h light/dark cycle and free access to water and food. Blood glucose (glucometer; NovaPro, Menarini Diagnostics) and body weight levels were monitored once weekly during the follow-up period. At the end of the intervention studies, mice were anaesthetized (ketamine 100 mg/kg and xylazine 10 mg/kg) and euthanized, and blood and tissue samples were collected.
Hepatic lipids were extracted as previously described. Commercial colorimetric kits were used to measure concentrations of total cholesterol (STA-384, Cell Biolabs) and TG (11528, Biosystems), and values were normalized by tissue weight and mg of protein (BCA assay), respectively.
At the time of harvest, liver samples were fixed in 10% buffered formalin, processed for paraffin-embedding and cut (3-4 µm) or embedded in OCT compound and cryosectioned into 7 µm slices. Deparaffinized sections were stained with hematoxylin/eosin and Masson's trichrome to evaluate the histological NAFLD activity score (NAS) considering steatosis, lobular inflammation, ballooning and fibrosis, as previously described or were stained with picrosirious red to assess collagen deposition and fibrotic areas. Periodic Acid Schiff staining was performed for glycogen deposition assessment. Cryosections were stained with Oil red O/ hematoxylin to detect lipid accumulation.
For immunohistochemistry, liver sections were deparaffinized and […] through graded xylene and ethanol. After antigen retrieval (0.01 M citrate buffer pH 6 for 20 min) and blockade of endogenous peroxidase (3% H2O2 in methanol for 30 min) and nonspecific binding (8% host serum for 30 min), slides were incubated overnight at 4°C with primary antibodies against phosphorylated STAT1 (P-STAT1, Tyr701; Thermo Fisher Scientific Cat# 44-376G, RRID:AB_2533642), P-STAT3 (Ser727, Cell Signalling Technology Cat# 9134, RRID:AB_331589), P-nuclear factor erythroid 2-related factor 2 (NRF2, Ser40; Abcam Cat# ab76026, RRID:AB_1524049) and F4/80 monocytes/macrophages (Bio-Rad Cat# MCA497R, RRID:AB_323279). After rinsing in PBS, samples were incubated with respective secondary antibodies conjugated with either horseradish peroxidase or biotin (followed by avidin-biotin complex reagent). Immunoreactive cells were then visualized by the addition of peroxidase substrates (3, 3-diaminobenzidine or 3-amino-9-ethylcarbazole; DAKO) and counterstained with hematoxylin.
All the histological evaluations were conducted in a blinded fashion. Positive staining was quantified in at least 2 sections per mice using Image-Pro Plus software (Media Cybernetics) and expressed as percentage or number of positive cells per area.
(§2) Total RNA from mouse liver and hepatocytes was extracted using TRI Reagent (Molecular Research Center). Complementary DNA was produced via reverse transcription using High Capacity cDNA Reverse Transcription Kit (Applied Biosystems). The gene expression of mouse genes was determined in duplicate by quantitative real-time PCR using predesigned TaqMan gene expression assays (Applied Biosystems) or Premix ExTaq (Takara). The results for each sample were normalized to the 18S rRNA housekeeping expression, and data expressed as fold increases versus chow diet (in vivo studies) or basal conditions (in vitro studies).

[2] = system: mouse hepatocyte cell line; experiment: In vitro NAFLD model: hepatocytes exposed to palmitic acid (Oil red O staining, real-time PCR); type: cell-based; settings: induced by palmitic acid 400 µM, 6 hours
Procedure: Immortalized mouse hepatocyte cell line (kindly provided by Dr. Valverde, IIBm Alberto Sols, Madrid) were cultured in Dulbecco's Modified Eagle Medium (DMEM; D6546, Sigma-Aldrich) containing 10% FBS, 100 U/mL penicillin, 100 µg/mL streptomycin and 2 mM L-glutamine (Sigma-Aldrich) and used between 2nd-8th passages. Cells were incubated for 24 hours in medium with 0.5% FBS, pre-treated for 90 min with optimal doses of peptides (59 µM S1 and 25 µM liPS5) and then stimulated for additional 2-16 h with palmitic acid (P-0500, Sigma-Aldrich; stock solution diluted in fatty acid-free BSA to 5 mM) at a final concentration of 400 µM. Cell viability was confirmed by the 3-(4,5-dimethylthiazol-2-yl)-2,5-diphenyltetrazolium bromide tetrazolium (MTT) assay. Lipid accumulation in hepatocytes was determined by Oil red O staining.
as §2

BKS db/db mice = experiment: T2D-induced liver damage in BKS db/db mice (leptin receptor deficiency); type: in vivo; settings: Losartan alone, 25 µg/g in drinking water, 7 weeks
Procedure: Leptin receptor deficiency in diabetes-susceptible strain BKS db/db: Homozygous C57BLKS (BKS) inbred db/db mice (16-weeks old males; Envigo) were randomized to receive in drinking water an angiotensin receptor blocker (Losartan 25 µg/g body weight) or vehicle as tap water (n=25). In addition, two groups of 8 losartan-treated mice were randomized to receive S1 peptide (10 µg/g body weight) or JAK1/2 inhibitor (Baricitinib 3 µg/g body weight) via intraperitoneal injection 3 days per week for 7 weeks. All groups were monitored during 7 weeks of treatment. Heterozygous littermates (db/m; n=10) were used as non-diabetic, non-obese control group.
as §1, with “At the end of the intervention studies, mice were anaesthetized (ketamine 100 mg/kg and xylazine 10 mg/kg) and euthanized, and blood and tissue samples were collected.” left out
At the end of the studies, serum levels of glucose, triglycerides (TG), total cholesterol, high-density lipoprotein cholesterol (HDL), low-density lipoprotein cholesterol (LDL), alanine aminotransferase (ALT or GPT), aspartate aminotransferase (AST), alkaline phosphatase (ALP) and albumin were determined by automated procedures (Roche Cobas autoanalyzer). […]

[3] = 4µg/g intraperitoneal 3 days per week, vs vehicle

Molecule	gene expression of CCL5 in mouse liver [1]	gene expression of CCl2 in mouse liver [1]	gene expression of CXCL10 in mouse liver [1]	gene expression of IL-6 in mouse liver [1]	gene expression of TNFα in mouse liver [1]	gene expression of scavenger receptor CD36 in mouse liver [1]	ballooning (liver sections) [1, 3]	hepatic steatosis (liver sections, hematoxylin/eosin, Oil red O) [1, 3]	inflammation (liver sections, F4/80) [1, 3]	expression of inflammatory gene CCL2 (real-time PCR) [2]	expression of inflammatory gene IL-6 (real-time PCR) [2]	expression of scavenger receptor CD36 (real-time PCR) [2]	hepatoprotective effect (BKS db/db mice)
DTC(Acm)RQT(Nal1)RKH (lactam bridge D1-K9) (DTC(Acm)RQT[1Nal]RKH; lactam 1-9) [cPS5Nal, cyclic PS5 with additional non-natural residue 1-naphthylalanine]	effectively prevented	effectively prevented	effectively prevented	effectively prevented	effectively prevented	effectively prevented	marked decrease	marked decrease	marked decrease	downregulated	downregulated	downregulated	–
CCCCc1nc(Cl)c(CO)n1Cc1ccc(-c2ccccc2-c2nn[nH]n2)cc1 [Losartan]	–	–	–	–	–	–	–	–	–	–	–	–	did not produce an hepatoprotective effect
